Source: US12371454B2, “Cyclic peptide compound having Kras inhibitory action” (priority 2019, dated 2025)
Starred links: 1 amine or outer side, 2 acyl side, 3 side chain; linkers in the order of their positions; H or OH if unused. Positions of bridges follow the written chain, without caps; N, C: chain ends. Non-standard residues stand in square brackets, D forms with d. Residues, ends and D or L forms follow the SMILES beside them. *: point of attachment. hPhe(3-Cl-4-CF3) = N[C@@H](CCc1ccc(C(F)(F)F)c(Cl)c1)C(=O)O; NPrAsp = CCCN([C@@H](CC(=O)[*:3])C(=O)[*:2])[*:1]; hPhe(4-CF3) = N[C@@H](CCc1ccc(C(F)(F)F)cc1)C(=O)O; NMeMet(O2) = CN[C@@H](CCS(C)(=O)=O)C(=O)O; NMeAla(cPent) = CN[C@@H](CC1CCCC1)C(=O)O; NMeGly(cPent) = CN[C@H](C(=O)O)C1CCCC1; Pro(4,4-F2) = O=C(O)[C@@H]1CC(F)(F)CN1; NMeAla(cPr) = CN[C@@H](CC1CC1)C(=O)O; NMeCha = CN[C@@H](CC1CCCCC1)C(=O)O; NMeAhp(2) = CCCCC[C@H](NC)C(=O)O; NMeChg = CN[C@H](C(=O)O)C1CCCCC1; NMeD = CN[C@@H](CC(=O)O)C(=O)O; NMeL = CN[C@@H](CC(C)C)C(=O)O; NMeV = CN[C@H](C(=O)O)C(C)C; Morpholide = C1CN(*)CCO1; NMeA = CN[C@@H](C)C(=O)O; Piperidide = C1CCN(*)CC1; Ac5c = NC1(C(=O)O)CCCC1; Aze = O=C(O)[C@@H]1CCN1; Sar = CNCC(=O)O

Key:
[1] = target: T1, Kras and SOS1 (biotin-tagged human Kras loaded with GDP, His-tagged human SOS1) (Homo sapiens, UniProt P01116, G12D); assay: Protein-protein interaction inhibition between Kras and SOS1 (KrasGl2D-SOS PPI) using AlphaScreen; format: binding; settings: AlphaScreen; biotin-tagged human Kras loaded with GDP, His-tagged human SOS1; read-out: KRAS G12D-SOS PPI IC50
T1 construct: made in house; host or cells: E. coli (stated for Kras only)
In short: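 Donor beads (nickel) hold His-SOS1; acceptor beads (streptavidin) hold biotin-Kras bound to GDP. Signal measured at 520-620 nm following 680 nm excitation.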

[2] = test system: Human pancreatic cancer cell line AsPC-1; assay: Measurement of AsPC-1 cell growth inhibition (AsPC-1 CGI); format: cell-based; settings: 96 h
In short: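 AsPC-1 cells in 15% FBS RPMI-1640 were exposed to test compound for 96 hours at 37° C, with CellTiter-Glo as endpoint.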

T1 sequence (P01116 1-188 isoform P01116-2 G12D): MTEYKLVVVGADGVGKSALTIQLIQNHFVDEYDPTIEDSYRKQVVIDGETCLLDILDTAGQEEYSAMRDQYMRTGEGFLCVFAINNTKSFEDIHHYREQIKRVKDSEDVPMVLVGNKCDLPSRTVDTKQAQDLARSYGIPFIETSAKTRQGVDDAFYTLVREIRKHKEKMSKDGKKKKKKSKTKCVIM

Compound | IC50 [1] | IC50 [2]
CCCCC[C@H]1C(=O)N[C@@H]([C@@H](C)CC)C(=O)N[C@@H](C)C(=O)N2CC[C@H]2C(=O)N(C)[C@@H](C2CCCC2)C(=O)N(C)CC(=O)N[C@@H](CCc2ccc(C(F)(F)F)c(Cl)c2)C(=O)N2CCC[C@H]2C(=O)NC2(CCCC2)C(=O)N(C)[C@@H](C2CCCC2)C(=O)N(C)[C@H](C(=O)N2CCOCC2)CC(=O)N1C [Compound 11] ([NMeAhp(2)]IA[Aze][NMeGly(cPent)][Sar][hPhe(3-Cl-4-CF3)]P[Ac5c][NMeGly(cPent)][NMeD]-Morpholide; lactam N-11) | 1.5 nM | 50 to 100 nM
CC[C@H](C)[C@@H]1NC(=O)[C@H](CC(C)C)N(C)C(=O)C[C@@H](C(=O)N2CCCCC2)N(C)C(=O)[C@H](CC2CCCC2)N(C)C(=O)C2(CCCC2)NC(=O)[C@@H]2CCCN2C(=O)[C@H](CCc2ccc(C(F)(F)F)c(Cl)c2)NC(=O)CN(C)C(=O)[C@H](CC2CCCCC2)N(C)C(=O)CN(C)C(=O)CN(C)C1=O [Compound 30] ([NMeL]I[Sar][Sar][NMeCha][Sar][hPhe(3-Cl-4-CF3)]P[Ac5c][NMeAla(cPent)][NMeD]-Piperidide; lactam N-11) | 4.6 nM | 100 to 500 nM
CC[C@H](C)[C@@H]1NC(=O)[C@H](CC(C)C)N(C)C(=O)C[C@@H](C(=O)N2CCCCC2)N(C)C(=O)[C@H](C2CCCCC2)N(C)C(=O)C2(CCCC2)NC(=O)[C@@H]2CC(F)(F)CN2C(=O)[C@H](CCc2ccc(C(F)(F)F)c(Cl)c2)NC(=O)CN(C)C(=O)[C@H](CC2CCCCC2)N(C)C(=O)CN(C)C(=O)CN(C)C1=O [Compound 48] ([NMeL]I[Sar][Sar][NMeCha][Sar][hPhe(3-Cl-4-CF3)][Pro(4,4-F2)][Ac5c][NMeChg][NMeD]-Piperidide; lactam N-11) | 0.97 nM | 20 to 50 nM
CC[C@H](C)[C@@H]1NC(=O)[C@H](CCS(C)(=O)=O)N(C)C(=O)C[C@@H](C(=O)N2CCCCC2)N(C)C(=O)[C@H](C2CCCCC2)N(C)C(=O)C2(CCCC2)NC(=O)[C@@H]2CCCN2C(=O)[C@H](CCc2ccc(C(F)(F)F)c(Cl)c2)NC(=O)CN(C)C(=O)[C@H](CC2CCCCC2)N(C)C(=O)CN(C)C(=O)CN(C)C1=O [Compound 52] ([NMeMet(O2)]I[Sar][Sar][NMeCha][Sar][hPhe(3-Cl-4-CF3)]P[Ac5c][NMeChg][NMeD]-Piperidide; lactam N-11) | 0.66 nM | 100 to 500 nM
CCCN1C(=O)[C@H](C2CCCC2)N(C)C(=O)C2(CCCC2)NC(=O)[C@@H]2CCCN2C(=O)[C@H](CCc2ccc(C(F)(F)F)c(Cl)c2)NC(=O)CN(C)C(=O)[C@H](CC2CCCCC2)N(C)C(=O)CN(C)C(=O)CN(C)C(=O)[C@H]([C@@H](C)CC)NC(=O)[C@H](C)N(C)C(=O)C[C@H]1C(=O)N1CCCCC1 [Compound 56] ([NMeA]I[Sar][Sar][NMeCha][Sar][hPhe(3-Cl-4-CF3)]P[Ac5c][NMeGly(cPent)][NPrAsp]-Piperidide; lactam N-11) | 2.3 nM | 20 to 50 nM
CC[C@H](C)[C@@H]1NC(=O)[C@H](CC2CCCC2)N(C)C(=O)C[C@@H](C(=O)N2CCCCC2)N(C)C(=O)[C@H](C(C)C)N(C)C(=O)C2(CCCC2)NC(=O)[C@@H]2CCCN2C(=O)[C@H](CCc2ccc(C(F)(F)F)c(Cl)c2)NC(=O)CN(C)C(=O)[C@H](CC2CCCCC2)N(C)C(=O)CN(C)C(=O)CN(C)C1=O [Compound 60] ([NMeAla(cPent)]I[Sar][Sar][NMeCha][Sar][hPhe(3-Cl-4-CF3)]P[Ac5c][NMeV][NMeD]-Piperidide; lactam N-11) | 7.9 nM | 100 to 500 nM
CC[C@H](C)[C@@H]1NC(=O)[C@H](CC2CC2)N(C)C(=O)C[C@@H](C(=O)N2CCCCC2)N(C)C(=O)[C@H](C2CCCCC2)N(C)C(=O)C2(CCCC2)NC(=O)[C@@H]2CCCN2C(=O)[C@H](CCc2ccc(C(F)(F)F)c(Cl)c2)NC(=O)CN(C)C(=O)[C@H](CC2CCCCC2)N(C)C(=O)CN(C)C(=O)CN(C)C1=O [Compound 68] ([NMeAla(cPr)]I[Sar][Sar][NMeCha][Sar][hPhe(3-Cl-4-CF3)]P[Ac5c][NMeChg][NMeD]-Piperidide; lactam N-11) | 0.58 nM | 50 to 100 nM
CC[C@H](C)[C@@H]1NC(=O)[C@H](C)N(C)C(=O)C[C@@H](C(=O)N2CCCCC2)N(C)C(=O)[C@H](C2CCCCC2)N(C)C(=O)C2(CCCC2)NC(=O)[C@@H]2CCCN2C(=O)[C@H](CCc2ccc(C(F)(F)F)cc2)NC(=O)CN(C)C(=O)[C@H](CC2CCCCC2)N(C)C(=O)CN(C)C(=O)CN(C)C1=O [Compound 72] ([NMeA]I[Sar][Sar][NMeCha][Sar][hPhe(4-CF3)]P[Ac5c][NMeChg][NMeD]-Piperidide; lactam N-11) | 0.47 nM | 100 to 500 nM
